IC50 data for eight compounds are collected here from patent US9040528B2, “Chemical compounds 542” (AstraZeneca AB, priority 2008, dated 2015).

The IC50 is the point on the concentration scale where inhibition reaches its midpoint.

The target of this experiment is Escherichia coli DNA gyrase A/B tetramer (Escherichia coli (strain K12), UniProt P0AES4+P0AES6). The experiment in a line: DNA gyrase supercoiling activity fluorescence polarisation assay. Particulars: 5 nM enzyme, relaxed plasmid, 0.3 mM ATP, ambient temperature; read-out: E. coli DNA gyrase supercoiling IC50. It is filed as biochemical. The protocol:
DNA Gyrase Supercoiling Activity Fluorescence Polarisation Assay
The supercoiling reactions may be quenched by the addition of 10 microliters/well of 40 nM oligodeoxynucleotide probe in 3× triplex-forming buffer consisting of 150 mM NaCl, and 150 mM sodium acetate at pH 3.5. The oligodeoxynucleotide probe may be 5′-BODIPY-FL-labeled […]. After 60 minutes, the fluorescence anisotropy of the BODIPY-FL may be measured in a Tecan Ultra plate reader, using 485 nm excitation and 535 nm emission filters equipped with polarizers. The IC50 may be determined by nonlinear regression using two control reactions. The first contains no test compound but 0.8% DMSO (100% activity) while the second control reaction contains 5 μM Ciprofloxacin and 0.8% DMSO (0% activity).
On the technique in general: Polarisation of emitted light reports the rotation of a fluorescent probe.
`C[C@@H]1CN2c3c(cc4c(N5CCCCCC5)noc4c3F)CC3(C(=O)NC(=O)NC3=O)[C@H]2[C@H](C)O1` (relative stereo) [Example 26, (2R,4S,4aS)-rel-8-(azepan-1-yl)-11-fluoro-2,4-dimethyl-1,2,4,4a-tetrahydro-2′H,6H-spiro[isoxazolo[4,5-g][1,4]oxazino[4,3-a]quinoline-5,5′-pyrimidine]-2′,4′,6′(1′H,3′H)-trione]: the concentration for half-maximal inhibition (IC50) turned out to be 3.7 µM.

`Cc1cc(C(F)(F)F)nn1-c1noc2c(F)c3c(cc12)CC1(C(=O)NC(=O)NC1=O)[C@H]1[C@H](C)O[C@H](C)CN31` (relative stereo) [Example 27, (2R,4S,4aS)-rel-11-fluoro-2,4-dimethyl-8-[5-methyl-3-(trifluoromethyl)-1H-pyrazol-1-yl]-1,2,4,4a-tetrahydro-2′H,6H-spiro[isoxazolo[4,5-g][1,4]oxazino[4,3-a]quinoline-5,5′-pyrimidine]-2′,4′,6′(1′H,3′H)-trione]: the concentration for half-maximal inhibition (IC50) was 7.1 µM.

Consider `CC(=O)Nc1ccn(-c2noc3c(F)c4c(cc23)CC2(C(=O)NC(=O)NC2=O)[C@H]2[C@H](C)O[C@H](C)CN42)n1` (relative stereo) [Example 28, N-{1-[(2R,4S,4aS)-rel-11-fluoro-2,4-dimethyl-2′,4′,6′-trioxo-1,1′,2,3′,4,4′,4a,6′-octahydro-2′H,6H-spiro[1,4-oxazino[4,3-a][1,2]oxazolo[4,5-g]quinoline-5,5′-pyrimidin]-8-yl]-1H-pyrazol-3-yl}acetamide], for which the IC50 was 3.1 µM.

Regarding `Cc1cc(C(F)F)nn1-c1noc2c(F)c3c(cc12)CC1(C(=O)NC(=O)NC1=O)[C@H]1[C@H](C)O[C@H](C)CN31` (relative stereo) [Example 30, (2R,4S,4aS)-rel-8-[3-(difluoromethyl)-5-methyl-1H-pyrazol-1-yl]-11-fluoro-2,4-dimethyl-1,2,4,4a-tetrahydro-2′H,6H-spiro[isoxazolo[4,5-g][1,4]oxazino[4,3-a]quinoline-5,5′-pyrimidine]-2′,4′,6′(1′H,3′H)-trione], the IC50 was 5.4 µM.

On to `CCCNc1noc2c(F)c3c(cc12)CC1(C(=O)NC(=O)NC1=O)[C@H]1[C@H](C)O[C@H](C)CN31` (relative stereo) [Example 31, (2R,4S,4aS)-rel-11-fluoro-2,4-dimethyl-8-(propylamino)-1,2,4,4a-tetrahydro-2′H,6H-spiro[1,4-oxazino[4,3-a][1,2]oxazolo[4,5-g]quinoline-5,5′-pyrimidine]-2′,4′,6′(1′H,3′H)-trione], for which the IC50 turned out to be 2.2 µM.

Consider `C[C@@H]1CN2c3c(cc4c(N(C)Cc5ccccc5)noc4c3F)CC3(C(=O)NC(=O)NC3=O)[C@H]2[C@H](C)O1` (relative stereo) [Example 32, (2R,4S,4aS)-rel-8-[benzyl(methyl)amino]-11-fluoro-2,4-dimethyl-1,2,4,4a-tetrahydro-2′H,6H-spiro[1,4-oxazino[4,3-a][1,2]oxazolo[4,5-g]quinoline-5,5′-pyrimidine]-2′,4′,6′(1′H,3′H)-trione], for which the IC50 is 0.6 µM.

`C[C@@H]1CN2c3c(cc4c(-n5cc(C#N)c(N)n5)noc4c3F)CC3(C(=O)NC(=O)NC3=O)[C@H]2[C@H](C)O1` (relative stereo) [Example 33, 3-amino-1-[(2R,4S,4aS)-rel-11-fluoro-2,4-dimethyl-2′,4′,6′-trioxo-1,1′,2,3′,4,4′,4a,6′-octahydro-2′H,6H-spiro[1,4-oxazino[4,3-a][1,2]oxazolo[4,5-g]quinoline-5,5′-pyrimidin]-8-yl]-1H-pyrazole-4-carbonitrile]: the concentration for half-maximal inhibition (IC50) worked out at 1 µM.

`C[C@@H]1CN2c3c(cc4c(-n5cc(-c6ccncn6)cn5)noc4c3F)CC3(C(=O)NC(=O)NC3=O)[C@H]2[C@H](C)O1` (relative stereo) [Example 34, (2R,4S,4aS)-rel-11-fluoro-2,4-dimethyl-8-[4-(pyrimidin-4-yl)-1H-pyrazol-1-yl]-1,2,4,4a-tetrahydro-2′H,6H-spiro[1,4-oxazino[4,3-a][1,2]oxazolo[4,5-g]quinoline-5,5′-pyrimidine]-2′,4′,6′(1′H,3′H)-trione]: the IC50 amounted to 16.3 µM.
